Measurements: patent US11358931B2, “Selective androgen receptor modulators (SARMs) and uses thereof” (priority 2007, dated 2022)
Like-named read-outs stand apart in the source and are kept apart here.

Assays:
Type in all cases: cell-based
[1] = system: human skeletal α-actin promoter activity; assay: Skeletal α-actin promoter assay (C2C12 cells transfected with human AR); details: for EC50: C2C12, read-out: EC50, activation of skeletal α-actin promoter; for efficacy, % of DHT: C2C12 mouse muscle cells
Excerpt: An exemplary assay for measuring AR-mediated gene expression in mouse muscle cells is the human skeletal α-actin assay. A mouse muscle cell line (C2C12, obtained from American Type Cell Culture (ATCC, Rockville, Md.)) can be used in the luciferase reporter assay. An SK α-actin-LUC reporter plasmid is constructed by inserting the skeletal α-actin promoter sequence into a luciferase reporter vector (e.g., by cloning the human skeletal α-actin promoter region from −77 to +202 bp from human liver genomic DNA (Clontech, Palo Alti, Calif.) and inserting the sequence into a pGL3-Basic reporter plasmid (Promega, Madison, Wis.)). The C2C12 cell line can be transiently transfected with a human AR expression plasmid and a luciferase reporter plasmid containing the skeletal α-actin promoter upstream of the luciferase cDNA. The compounds to be tested are added to the cells after transfection and after 24 hours of incubation, the cells are lysed with a detergent-containing buffer and assayed for luciferase activity.
Compound 102 was tested to determine its ability to activate human skeletal α-actin using the skeletal α-actin promoter assay. A mouse muscle cell line (C2C12) was transiently transfected with a human AR expression plasmid and a luciferase reporter plasmid containing the skeletal α-actin promoter upstream of the luciferase cDNA. C2C12 cells (at a concentration of 5×10^5) were seeded in a T25 flask and cultured for 24 hours. The cells were harvested by using trypsin and seeded at 6000 cells/well in 96-well plates. The same day, a non-liposomal formulation, FuGENE 6 reagent (Roche, Indianapolis, Ind.) was used for transfection of the cells. To each well was added 45.5 ng of the skeletal α-actin-LUC reporter plasmid, 4.55 ng pRShAR and 5 ng pRS-BG as carrier DNA. Twenty-four hours after transfection, different concentrations of the solvated compound (10^−10 to 10^−6 M) were added in triplicate to the cells and the cells were incubated for 24 hours. The medium was aspirated and the cells were lysed with a detergent-containing buffer. After addition of Luciferase Assay Buffer to each well, the cells were assayed for luciferase activity using a luminometer to determine the level of transcriptional activation.

[2] = target: endogenous human androgen receptor (hAR) (Homo sapiens, UniProt P10275); assay: Activation of hAR-responsive luciferase reporter in MDA-MB-453 cells
Protocol: A functional assay was conducted to determine the ability of test substances to modulate gene expression via endogenous human androgen receptor (hAR) in a human cell line. A luciferase reporter assay was utilized to establish the ability of test compounds to activate hAR-regulated gene expression in a human cell line containing endogenously expressed hAR (MDAMB-453 cells) transfected with an androgen-responsive luciferase reporter plasmid containing the cDNA for firefly luciferase. MDA-MB-453 cells were transfected with a plasmid containing the cDNA for firefly luciferase (LUC) under the control of a conditional promoter containing hormone response elements recognized by AR (MMTV-LUC) and a P-galactosidase expression plasmid (pRS-(3-Gal) for normalization of transfection efficiency. The reporter plasmid MMTVLUC contains the mouse Mammary Tumor Virus (MMTV) Long Terminal Repeat (LTR) conditional promoter containing hormone response elements recognized by hAR. The luciferase response was calculated as: Luciferase response/β-gal rate where
Luciferase response=Relative Luciferase Units (RLU) and
β-gal rate=β-gal 0.D.415/β-Gal incubation time in minutes.
The mean of the normalized response at each concentration of compound was calculated. The effective concentration that produced 50% of the maximum response (EC50) was determined for each compound by interpolation between two concentrations spanning the midpoint of the concentration-response curve. Agonist efficacy for test compounds was calculated as a percent of normalized response relative to the maximum normalized response by the reference agonist DHT.

[3] = system: TNFα-IL-1β-induced IL-6 promoter activity; assay: IL-6 promoter repression assay (Saos-2 human osteoblast cells transfected with human AR); details: for IC50: Homo sapiens, read-out: average IC50, suppression of TNFα-IL-1β-induced IL-6 promoter activity
Excerpt: An exemplary cotransfection assay for measuring AR-mediated effects on bone measures the modulation of IL-6 promoter activity. IL-6 is an important bone resorption factor (Jilka et al, Science 257: 88-91 (1992); Bellido et al., J Clin Invest 95: 2886-2895 (1995)). Overexpression of IL-6 can cause severe bone loss in vivo. […] It has been reported that androgens regulate IL-6 mRNA by suppressing NFKB binding to its response element (Keller et al., J Biol Chem 271: 26267-26275 (1996)). Thus, the AR-mediated modulation of IL-6 promoter activity provides an excellent marker for studying androgen action in bone. The assay is a cotransfection assay that measures the ability of compound to repress gene expression via the human androgen receptor from the IL-6 promoter using a luciferase reporter assay in human osteoblast cells.
A human osteoblast cell line (Saos-2, available from American Type Cell Culture (ATCC, Rockville, Md.)) can be used in the luciferase reporter assay. An IL-6-LUC reporter plasmid can be constructed by inserting the IL-6 promoter sequence into a luciferase reporter vector (e.g., by cloning the human IL-6 promoter region from −232 to +17 bp from human liver genomic DNA (Clontech, Palo Alti, Calif.) and inserting the sequence into a pGL2-enhancer reporter plasmid (Promega, Madison, Wis.)). The Saos-2 cell line can be transiently transfected with a human AR expression plasmid and a luciferase reporter plasmid containing the IL-6 promoter upstream of the luciferase cDNA. The compounds to be tested are added to the cells after transfection and after 24 hours of incubation, the cells are lysed with a detergent-containing buffer and assayed for luciferase activity. The EC50 is determined from the concentration response curve for the compound, and the inhibitory effect on TNFα/IL-1β induction (% inhibition) can be calculated according to the equation: […]
IL-6 is an important bone resorption factor. Over-expression of IL-6 can cause severe bone loss in vivo. Reducing IL-6 production by bone cells would be therapeutically beneficial by reducing bone resorption. Compound 102 and the androgen receptor modulators LG0893410 and LG0893411 were tested to determine their ability to suppress TNFα-IL-1β-induced IL-6 promoter activity in Saos-2 human osteoblast cells using a cotransfection assay. A human osteoblast cell line (Saos-2) was transiently transfected with a human AR expression plasmid and a luciferase reporter plasmid containing the IL-6 promoter upstream of the luciferase cDNA. Saos-2 cells were seeded at 6000 cells/well in 96-well plates. The same day, a non-liposomal formulation, FuGENE 6 reagent (Roche, Indianapolis, Ind.) was used for transfection of the cells. To each well was added […] of the IL-6-LUC reporter plasmid and 0.7 μg of pCMV-hAR. Twenty-four hours after transfection, different concentrations of the solvated compound (10^−11 to 10^−6 M) in DMEM (Dulbecco's Minimal Essential Media) were added in triplicate to the cells and the cells were incubated for 24 hours. The expression of luciferase was stimulated by the cytokines Tumor Necrosis Factor α (TNFα, 10 ng/mL) and Interleukin-1 beta (IL-1β, 1 ng/mL). The medium was aspirated and the cells were lysed with a detergent-containing buffer. After addition of Luciferase Assay Buffer to each well, the cells were assayed for luciferase activity using a luminometer to determine the level of transcriptional activation.

[4] = MDA-MB-453 cells, MMTV-LUC; read-out: EC50, activating hAR-responsive luciferase reporter

Sequence of endogenous human androgen receptor (hAR) (P10275 whole entry): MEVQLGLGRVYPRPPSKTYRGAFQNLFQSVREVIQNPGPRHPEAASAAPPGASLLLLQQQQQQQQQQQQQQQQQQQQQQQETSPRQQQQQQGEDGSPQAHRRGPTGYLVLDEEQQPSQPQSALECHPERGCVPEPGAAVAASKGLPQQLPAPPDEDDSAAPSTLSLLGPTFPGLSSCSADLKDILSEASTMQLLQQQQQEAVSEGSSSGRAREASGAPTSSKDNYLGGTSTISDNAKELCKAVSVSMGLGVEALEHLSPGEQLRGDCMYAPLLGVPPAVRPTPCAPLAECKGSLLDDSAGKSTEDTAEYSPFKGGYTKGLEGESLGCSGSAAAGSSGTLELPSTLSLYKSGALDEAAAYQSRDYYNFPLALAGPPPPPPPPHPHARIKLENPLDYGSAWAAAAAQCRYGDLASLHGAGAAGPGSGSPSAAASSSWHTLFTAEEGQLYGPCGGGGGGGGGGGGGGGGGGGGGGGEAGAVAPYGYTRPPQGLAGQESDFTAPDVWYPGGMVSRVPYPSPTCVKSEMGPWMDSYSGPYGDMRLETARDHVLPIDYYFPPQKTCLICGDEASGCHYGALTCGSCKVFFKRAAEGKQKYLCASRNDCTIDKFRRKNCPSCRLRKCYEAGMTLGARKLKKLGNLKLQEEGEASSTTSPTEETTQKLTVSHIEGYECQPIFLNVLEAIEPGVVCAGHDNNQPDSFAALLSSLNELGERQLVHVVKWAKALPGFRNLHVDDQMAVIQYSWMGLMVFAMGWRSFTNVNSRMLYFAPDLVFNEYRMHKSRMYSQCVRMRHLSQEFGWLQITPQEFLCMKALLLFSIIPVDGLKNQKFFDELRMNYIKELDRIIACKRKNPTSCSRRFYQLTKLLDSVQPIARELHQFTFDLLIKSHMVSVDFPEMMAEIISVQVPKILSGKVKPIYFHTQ

`N#Cc1ccc(N2CCC[C@@H]2[C@@H](O)C(F)(F)F)cc1C(F)(F)F` [Compound 102, R,R-4-(2-(1-Hydroxyl-2,2,2-trifluoroethyl)-pyrrolidinyl)-2-trifluoromethyl-benzonitrile] was tested, and the EC50 [1] was 8.7 nM, the “efficacy, % of DHT” value [1] was 93% and the “increase of skeletal α-actin promoter activity compared to vehicle control” value ([1]; concentration 1×10^−7 M) was “about 17.5 fold”. For the same molecule, the “more potent in stimulating muscle cells than LG0893410 and LG0893411” value ([1]; ratio of EC50) was 5-10 fold, the “more potent than LG0893410 and LG0893411 in activating hAR-responsive luciferase reporter” value ([2]; ratio of EC50) was 8.5 to 12.5 times and the EC50 ([2]; read-out: EC50, activating hAR-responsive luciferase reporter; MDA-MB-453 cells, MMTV-LUC) was 2.8 nM. For the same molecule, the IC50 ([3]; Saos-2 cells) was 0.41 nM, the “efficacy, % of DHT” value ([3]; Saos-2 cells) was 97% and the “more potent than LG0893410 and LG0893411 in suppressing IL-6 promoter activity” value ([3]; ratio of IC50) was 3-4 fold.

For `O=[N+]([O-])c1ccc(N2CCC[C@@H]2[C@@H](O)C(F)(F)F)cc1C(F)(F)F` [LG0893410, R,R-2,2,2-trifluoro-1-[1-(4-nitro-3-trifluoromethyl-phenyl)-pyrrolidin-2-yl]-ethanol], the EC50 [1] was 45.2 nM, the “efficacy, % of DHT” value [1] was 43% and the EC50 [2, 4] was 24.2 nM. For the same molecule, the IC50 ([3]; Saos-2 cells) was 1.2 nM.

For `O=[N+]([O-])c1ccc(N2CCC[C@@H]2[C@H](O)C(F)(F)F)cc1C(F)(F)F` [LG0893411, S, R-2,2,2-trifluoro-1-[1-(4-nitro-3-trifluoromethyl-phenyl)-pyrrolidin-2-yl]-ethanol], the EC50 [1] was 85.6 nM, the “efficacy, % of DHT” value [1] was 59% and the EC50 [2, 4] was 35 nM. The IC50 ([3]; Saos-2 cells) was 1.5 nM.
